Legend:
[1] = test system: cardiomyocytes from the left atria of MHC-CYCD2 transgenic mice; experiment: Number of cardiomyocyte nuclei (kariokinesis) in left atrial cultures with isoproterenol; type: cell-based; settings: isoproterenol 1 μm, 72 hrs, left atria of day 14 MHC-CYCD2 mice, FIG. 5
Procedure: Left atria from neonatal day 14 MHC-CYCD2 transgenic mice were harvested and digested in PBS (37° C., 60 min) containing 0.17% collagenase (Type I, Worthington Biochemical, Freehold N.J.). Cells were then triturated with a Pasteur pipette and plated at a density of 1×10^5 cells per chamber slide. Cells were cultured in DMEM supplemented with 10% FBS. In some cases, the media also contained isoproterenol (1 μm). After 72 hrs., the slides were fixed in gluteraldehyde-formaldehyde (1:1) and overlaid with 1 mg/ml X-GAL, 5 mM potassium ferricyanide, 5 mM potassium ferrocyanide and 2 mM magnesium chloride in PBS. The number of blue nuclei were counted directly on a microscope.

cell cycle protein = experiment: Western blot analysis of cell cycle protein level changes in response to isoproterenol; type: in vivo, mice; set-up: key to Cyclin D2 protein level: higher numbers of the symbol “+” indicate higher levels of protein; the symbol “−” indicates none detected; settings: 7 days infusion
Procedure: Western blots were used to analyze protein expression levels in adult MHC-CYCD2 mice and their non-transgenic litter mates. Hearts were homogenized in NP40 buffer (150 mM NaCl, 5 mM EDTA, 50 mM Tris-HCl pH 8.0, 1 μg/ml aprotinin, 1 μg/ml pepstatin, 1 μg/ml leupeptin, 50 μg/ml TLCK, 50 μg/ml PMSF, 100 μg/ml TPCK, 1% vol/vol Nonidet P-40). The homogenate was cleared by centrifugation at 40,000× g for 10 min, and the protein content of the supernatant was quantitated using a commercial assay (Bio-Rad, Richmond Calif.). Samples were separated by size on 10% polyacrylamide gels under denaturing conditions as described, and electro-blotted to nitrocellulose (Hoefer Scientific, San Francisco Calif.) membranes. The filters were stained with 0.1% naphthol blue-black in 45% methanol, 10% acetic acid to assess the efficiency of transfer. For Western analysis, nonspecific binding was blocked by incubation in block buffer (5% nonfat dry milk, 3% BSA, 0.1% Tween, 1×PBS) for 2 hr at room temperature. Commercial antibodies were used for each protein analyzed. Conditions (i.e. dilution, length of reaction, secondary antibody, etc) were according to the manufacturer's recommendations. The results are presented in Table 4 below, in which higher numbers of the symbol “+” indicate higher levels of protein, and the symbol “−” indicates none detected.
Myocardial hypertrophy was induced by isoproterenol infusion with Alzet minipumps in adult MHC-CYCD2 mice and their non-transgenic siblings (minipump model 2001, Alzet, Palo Alto Calif.; flow rate of 1 μl/hr, 0.028 g/ml isoproterenol). Hearts were harvested after 7 days of isoproterenol infusion and processed for Western blot analysis using procedures as described in Example 4. Again, higher numbers of the symbol “+” indicate higher levels of protein, and the symbol “−” indicates none detected.

cardiomyocytes = experiment: Tritiated thymidine incorporation assay of cardiomyocyte DNA synthesis (labeling index) in adult transgenic mice, with or without isoproterenol infusion; type: in vivo; settings: for Left Atrium cardiomyocyte labeling index / Right Atrium cardiomyocyte labeling index / Ventricle cardiomyocyte labeling index: isoproterenol infusion 7 days
Description: A thymidine incorporation assay was used to determine if cardiomyocyte DNA synthesis persisted in adult transgenic MCH-CYCD2 animals. This testing also employed a second transgenic mouse line, designated MHC-nLAC. The MCH-nLAC mice express a nuclear localized β-galactosidase (βGAL) reporter gene exclusively in the cardiomyocytes (Soonpaa, M. H. et al., Science 264:98-101 (1994); Soonpaa, M. H. and L. J. Field, Am. J. Physiol. 272:H220-226 (1997)). Accurate cardiomyocyte tritiated thymidine labeling indices can be readily obtained with the MHC-nLAC animals simply by screening for co-localization of βGAL activity and silver grains in autoradiographs of 5-bromo-4-chloro-3-indolyl-B-D-galactoside (X-GAL) stained heart sections. To monitor the effect of cyclin D2 overexpression on cardiomyocyte DNA synthesis, MHC-CYCD2 mice were crossed with MHC-nLAC mice and animals carrying either the MHC-nLAC transgene alone or both transgenes were identified and sequestered. When the mice reached 11 weeks of age, they received a single injection of tritiated thymidine and were sacrificed four hours later. The hearts were removed, sectioned, stained with X-GAL and processed for autoradiography. […] In light of the sustained cardiomyocyte DNA synthesis observed in the adult MHC-CYCD2 mouse hearts, a series of experiments was initiated to ascertain how the transgenic myocardium would respond to cardiac hypertrophy. Osmotic mini-pumps (Model 2001, Alzet, Palo Alto, Calif., flow rate of 1 μl per hour) filled with saline or 0.028 g/ml isoproterenol in saline were implanted through a small longitudinal incision between the scapulae. 8 control mice (MHC-nLAC) and 8 cyclin D2 mice (MHC-nLAC/MHC-CYCD2 double transgenics) were used.
Prior to sacrifice, the experimental and control mice received a bolus injection of tritiated thymidine to permit assessment of cardiomyocyte DNA synthesis. After a 4 hour chase, the animals were sacrificed, and the hearts were harvested, cryoprotected, sectioned, stained with X-GAL and subjected to autoradiography. Once again, cardiomyocyte DNA synthesis was measured by scoring the presence of silver grains over βGAL positive nuclei. […] Isoproterenol treatment had no effect on cardiomyocyte DNA synthesis in the non-cyclin expressing control group.
Pulse chase experiments were employed to determine the fate of the cardiomyocytes synthesizing DNA. Once again, MHC-CYCD2 mice were crossed with MHC-nLAC mice. The MHC-nLAC mice express a nuclear localized β-GAL reporter exclusively in cardiomyocytes. Mice from this cross carrying either the MHC-nLAC transgene alone or both the MHC-nLAC and MHC-CYCD2 transgenes were identified and sequestered. At 11 weeks of age, myocardial hypertrophy was induced by isoproterenol infusion with Alzet minipumps (minipump model 2001, Alzet, Palo Alto Calif.; flow rate of 1 μl/hr, 0.028 g/ml isoproterenol). After 7 days of isoproterenol infusion, the control (MHC-nLAC) and experimental (MHC-nLAC/MHC-CYCD2 double transgenic) mice received a single injection of 3H-thymidine (200 uCi I.P. at 28 Ci/mM, Amersham, Arlington Heights, Ill.), and were sacrificed either 4 hours (pulse, FIG. 3A) or 72 hours (chase, FIG. 3B) later. The hearts were removed, cryoprotected in 30% sucrose, embedded and sectioned at 10 μm using standard histologic techniques. The sections were post-fixed in formaldehyde:glutaraldehyde (1:1) and overlaid with 1 mg/ml X-GAL, 5 mM potassium ferricyanide, 5 mM potassium ferrocyanide and 2 mM magnesium chloride in PBS. The sections were counter-stained with DAPI, and washed three times in PBS. After drying, stained slides were coated with photographic emulsion (Ilford L.4, Polysciences, Warrington Pa.) diluted 1:1 with water, drained, and placed in a light-tight box for four days at 4° C. Slides were then developed in Kodak D-19 (Rochester N.Y.) for four minutes, washed in water, and fixed in 30% sodium thiosulfate for at least four minutes. […]

Heart weight/body weight = type: in vivo, mice
Description: A thymidine incorporation assay was used to determine if cardiomyocyte DNA synthesis persisted in adult transgenic MCH-CYCD2 animals. This testing also employed a second transgenic mouse line, designated MHC-nLAC. The MCH-nLAC mice express a nuclear localized β-galactosidase (βGAL) reporter gene exclusively in the cardiomyocytes (Soonpaa, M. H. et al., Science 264:98-101 (1994); Soonpaa, M. H. and L. J. Field, Am. J. Physiol. 272:H220-226 (1997)). Accurate cardiomyocyte tritiated thymidine labeling indices can be readily obtained with the MHC-nLAC animals simply by screening for co-localization of βGAL activity and silver grains in autoradiographs of 5-bromo-4-chloro-3-indolyl-B-D-galactoside (X-GAL) stained heart sections. To monitor the effect of cyclin D2 overexpression on cardiomyocyte DNA synthesis, MHC-CYCD2 mice were crossed with MHC-nLAC mice and animals carrying either the MHC-nLAC transgene alone or both transgenes were identified and sequestered. When the mice reached 11 weeks of age, they received a single injection of tritiated thymidine and were sacrificed four hours later. The hearts were removed, sectioned, stained with X-GAL and processed for autoradiography. […]

[2] = Control mice, isoproterenol treated 7 days
[3] = MHC-CYCD2 mice, listed as Isoproterenol

With `CC(C)NCC(O)c1ccc(O)c(O)c1` (centres unmarked) [isoproterenol] the “number of cardiomyocyte nuclei in the culture” value [1] was “substantial increase”, the CDC2 protein level (cell cycle protein; NonTransgenic (+Iso)) was “+ +” and the “Cyclin D2 protein level” value (cell cycle protein; NonTransgenic (+Iso)) was “+”. For the same compound, the PCNA protein level (cell cycle protein; NonTransgenic (+Iso)) was “+ +”, the CDC2 protein level (cell cycle protein; Transgenic (+Iso)) was “+ + + +” and the “Cyclin D2 protein level” value (cell cycle protein; Transgenic (+Iso)) was “+ + + + +”. The PCNA protein level (cell cycle protein; Transgenic (+Iso)) was “+ + + +”, the “Left Atrium cardiomyocyte labeling index” value (cardiomyocytes; Control (MHC-nLAC) mice) was 0% and the “Right Atrium cardiomyocyte labeling index” value (cardiomyocytes; Control (MHC-nLAC) mice) was 0%. The “Ventricle cardiomyocyte labeling index” value (cardiomyocytes; Control (MHC-nLAC) mice) was 0%, the “Left Atrial DNA Synth. (%) Iso(7 days)” value (cardiomyocytes; [2]) was 0.00% and the “Ventricular DNA Synth. (%) Iso(7 days)” value (cardiomyocytes; [2]) was 0.00%. For the same compound, the “Left Atrium cardiomyocyte labeling index” value (cardiomyocytes; MHC-CYCD2 mice) was 7.28%, the “Ventricle cardiomyocyte labeling index” value (cardiomyocytes; MHC-CYCD2 mice) was “moderately decreased” and the “Left Atrium cardiomyocyte labeling index” value (cardiomyocytes; [3]) was 7.28%. The “Right Atrium cardiomyocyte labeling index” value (cardiomyocytes; [3]) was 0.29%, the “Ventricle cardiomyocyte labeling index” value (cardiomyocytes; [3]) was 0.11% and the “effect on cardiomyocyte DNA synthesis” value (cardiomyocytes; non-cyclin expressing control group, isoproterenol treatment) was “no effect”. The “increase in heart weight/body weight” value (Heart weight/body weight; control mice, isoproterenol vs saline treated animals) was 28% and the “increase in heart weight/body weight” value (Heart weight/body weight; cyclin expressing mice, continuous isoproterenol 7 days) was 47.6%.

From patent publication US20020166134A1, “Cardiomyocytes with enhanced proliferative potenial, and methods for preparing and using same” (priority 1999, published 2002)
